Assays:
[1] = target: LpCopA (Legionella pneumophila Cu^+ transporting P-type ATPase) (Legionella pneumophila subsp. pneumophila, UniProt Q5ZWR1); details: for Measured LpCopA activity in the presence of different ions (relative ATPase activity): 100 μM CuCl2 or AgNo3, 1 mg/mL E. coli total lipid extract, 20 mM cysteine, TTM background subtracted
[2] = target: HMBD-truncated LpCopA (Legionella pneumophila subsp. pneumophila, UniProt Q5ZWR1)
HMBD-truncated LpCopA, sequence (Q5ZWR1 75-736 limits assumed): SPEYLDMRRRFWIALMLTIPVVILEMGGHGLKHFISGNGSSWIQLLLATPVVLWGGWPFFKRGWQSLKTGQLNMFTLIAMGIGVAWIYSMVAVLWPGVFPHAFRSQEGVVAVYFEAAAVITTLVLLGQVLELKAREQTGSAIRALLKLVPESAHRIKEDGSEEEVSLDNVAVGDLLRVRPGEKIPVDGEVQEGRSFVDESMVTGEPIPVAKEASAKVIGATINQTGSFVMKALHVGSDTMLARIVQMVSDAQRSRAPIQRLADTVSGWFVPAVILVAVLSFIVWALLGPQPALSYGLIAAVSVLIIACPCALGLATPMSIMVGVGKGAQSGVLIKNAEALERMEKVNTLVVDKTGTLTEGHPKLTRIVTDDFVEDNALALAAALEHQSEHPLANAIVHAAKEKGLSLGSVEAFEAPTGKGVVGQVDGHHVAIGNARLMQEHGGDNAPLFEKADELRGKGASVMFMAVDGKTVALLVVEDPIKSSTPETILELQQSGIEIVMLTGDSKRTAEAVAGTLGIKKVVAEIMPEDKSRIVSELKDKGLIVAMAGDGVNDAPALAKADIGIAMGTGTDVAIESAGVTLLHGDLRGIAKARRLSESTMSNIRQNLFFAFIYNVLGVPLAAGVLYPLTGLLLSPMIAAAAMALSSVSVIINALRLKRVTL

LpCopA (Legionella pneumophila Cu^+ transporting P-type ATPase), sequence (Q5ZWR1 whole entry, looked up, the tested form may be a part): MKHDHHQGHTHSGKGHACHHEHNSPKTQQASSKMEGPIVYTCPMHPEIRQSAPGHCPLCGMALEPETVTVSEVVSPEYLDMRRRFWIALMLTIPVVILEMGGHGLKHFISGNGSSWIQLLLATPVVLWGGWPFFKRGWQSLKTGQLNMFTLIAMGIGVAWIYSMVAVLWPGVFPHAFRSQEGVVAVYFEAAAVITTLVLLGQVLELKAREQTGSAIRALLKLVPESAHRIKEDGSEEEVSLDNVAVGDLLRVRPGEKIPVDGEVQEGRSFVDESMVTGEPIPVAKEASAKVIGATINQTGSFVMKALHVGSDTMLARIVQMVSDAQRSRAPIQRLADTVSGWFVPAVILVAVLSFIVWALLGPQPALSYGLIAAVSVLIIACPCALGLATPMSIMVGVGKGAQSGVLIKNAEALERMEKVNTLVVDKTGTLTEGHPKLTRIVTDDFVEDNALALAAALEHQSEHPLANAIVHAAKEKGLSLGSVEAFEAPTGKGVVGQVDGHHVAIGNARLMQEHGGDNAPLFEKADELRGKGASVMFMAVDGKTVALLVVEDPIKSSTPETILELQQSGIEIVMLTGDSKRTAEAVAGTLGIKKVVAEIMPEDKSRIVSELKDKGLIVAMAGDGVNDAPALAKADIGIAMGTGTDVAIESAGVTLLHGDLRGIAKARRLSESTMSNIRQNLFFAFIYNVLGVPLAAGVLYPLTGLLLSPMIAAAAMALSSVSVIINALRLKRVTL

With `[Ag+]` [Ag^+] the “Measured LpCopA activity in the presence of different ions (relative ATPase activity)” value [1] was “clearly stimulate ATPase activity”.
In the case of `[Cl][Cu][Cl]` [CuCl2], the “CuCl2 concentration of optimum ATPase activity” value [2] is reported as “about 1 mM” and the “CuCl2 concentration of highest ATPase activity” value ([1]; full-length LpCopA, 10 nM to 10 mM CuCl2 incl. 10 μM TTM, appears inhibited above) is reported as 1 mM.
In the case of `[Cu+]` [Cu^+], the “Measured LpCopA activity in the presence of different ions (relative ATPase activity)” value [1] is reported as “clearly stimulate ATPase activity”.

Reference: US20150045284A1 (priority 2011, published 2015)
